Data published in US9975930B2, “Lantibiotic derivatives and process for their preparation” (NAICONS S.r.l., priority 2012, dated 2018).

Assays:
Assay in all cases: MIC by broth microdilution
[1] = system: Staphylococcus aureus Met-R; assay type: cell-based; details: code 1400; CAMHB broth; 20-24 hours at 35° C.
S. aureus ATCC 25923 = assay type: cell-based, Staphylococcus aureus; details: CAMHB broth; 20-24 hours at 35° C.
E. faecium VanA = assay type: cell-based, Enterococcus faecium; details: code 569; CAMHB broth; 20-24 hours at 35° C.
[2] = system: Enterococcus faecium VanS; assay type: cell-based; details: code 568, CAMHB broth
E. faecalis VanS = assay type: cell-based; details: code 559, CAMHB broth
S. pyogenes = assay type: cell-based; details: code 49; Todd Hewitt broth; 20-24 hours at 35° C.
S. aureus ATCC19636 = assay type: cell-based, Staphylococcus aureus; details: code 819, CAMHB broth
E. faecalis VanA = assay type: cell-based; details: code 560; CAMHB broth; 20-24 hours at 35° C.
Candida albicans = assay type: cell-based; details: code 145; RPMI-1640; 48 hours
[3] = system: Staphylococcus aureus Met-S ATCC6538P; assay type: cell-based; details: code 100; CAMHB broth; 20-24 hours at 35° C.

## CN[C@H](CC(C)C)C(=O)N[C@H]1C(=O)N[C@@H](CC(N)=O)C(=O)N[C@H]2C(=O)N[C@H]3C(=O)N[C@H](C(=O)N[C@H](C(=O)O)c4cc(O)cc(O)c4-c4cc3ccc4O)[C@H](O)c3ccc(c(Cl)c3)Oc3cc2cc(c3O[C@@H]2O[C@H](CO)[C@@H](O)[C@H](O)[C@H]2O[C@H]2C[C@](C)(N)[C@H](O)[C@H](C)O2)Oc2ccc(cc2Cl)[C@H]1O [VA, vancomycin]
[1]
  Minimal inhibitory concentration (MIC): 0.5
S. aureus ATCC 25923
  Minimal inhibitory concentration (MIC): 1
E. faecium VanA
  Minimal inhibitory concentration (MIC): >128
[2]; +serum 30% (bovine serum)
  Minimal inhibitory concentration (MIC): 2
[2]; 20-24 hours at 35° C.
  Minimal inhibitory concentration (MIC): 2
E. faecalis VanS; +serum 30% (bovine serum)
  Minimal inhibitory concentration (MIC): 2
E. faecalis VanS; 20-24 hours at 35° C.
  Minimal inhibitory concentration (MIC): 1
S. pyogenes
  Minimal inhibitory concentration (MIC): 0.25
S. aureus ATCC19636; +serum 30% (bovine serum)
  Minimal inhibitory concentration (MIC): 1
S. aureus ATCC19636; 20-24 hours at 35° C.
  Minimal inhibitory concentration (MIC): 0.5
E. faecalis VanA
  Minimal inhibitory concentration (MIC): 2
Candida albicans
  Minimal inhibitory concentration (MIC): >128
[3]
  Minimal inhibitory concentration (MIC): 0.25
